Where two headings read alike, the source gives them in different places.
Legend:
[1] = system: HCV genotype 1b (Con1) replicon in HUH-7 cells; assay: HCV replicon luciferase reporter assay, genotype 1b; type: cell-based; conditions: Hepatitis C virus, Huh-7, 72 h, 3 days incubation, read-out: LE_1b (EC50, range)
In short: (§1)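 Replicon inhibition for both genotypes was measured as Renilla luciferase signal (EnduRen, 7.5 μM final, 2 h) after 3-day, 37° C exposure of replicon-bearing HUH-7 cells in 4% FCS DMEM, 0.5% DMSO. The 1b construct carries S1179I; the 1a H77 construct carries P1496L and S2204I. Twenty-point, 3-fold dilutions were fitted four-parametrically for EC50, and CC50 was taken from multiplexed Cell Titer-Blue.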

[2] = system: HCV genotype 1a (H77 strain) replicon in HUH-7 cells; assay: HCV replicon luciferase reporter assay, genotype 1a; type: cell-based; conditions: Hepatitis C virus, Huh-7, 72 h, 3 days incubation, read-out: LE_1a (EC50, range)
In short: as §1

[3] = HCV genotype 1b replicon luciferase assay, range class
[4] = HCV genotype 1a replicon luciferase assay, range class
[5] = GETYPE1B, HCV genotype 1b replicon luciferase
[6] = GETYPE1A, HCV genotype 1a replicon luciferase
[7] = HCV genotype 1b replicon luciferase
[8] = HCV genotype 1a replicon luciferase

| SMILES | EC50 [1, 3] | EC50 [2, 4] | EC50 [1, 7] | EC50 [2, 8] | other results |
| --- | --- | --- | --- | --- | --- |
| COc1ccc2c(O[C@@H]3C[C@H]4C(=O)N[C@]5(C(=O)NS(=O)(=O)C6(CF)CC6)C[C@H]5/C=C\CC[C@@H](C)C[C@@H](C)[C@H](NC(=O)OC(C)(C)C)C(=O)N4C3)nc(OC)cc2c1 [Compound 1125, tert-butyl ((2R,6S,7R,9R,13aS,14aR,16aS,Z)-2-((3,6-dimethoxyisoquinolin-1-yl)oxy)-14a-(((1-(fluoromethyl)cyclopropyl)sulfonyl)carbamoyl)-7,9-dimethyl-5,16-dioxo-1,2,3,5,6,7,8,9,10,11,13a,14,14a,15,16,16a-hexadecahydrocyclopropa[e]pyrrolo[1,2-a][1,4]diazacyclopentadecin-6-yl)carbamate] | < 5.46 nM | < 5.46 nM | – | – | – |
| CC[C@@H]1C[C@H](C)CC/C=C\[C@@H]2C[C@@]2(C(=O)NS(=O)(=O)C2(CF)CC2)NC(=O)[C@@H]2C[C@@H](Oc3nccc4cc(OC)c(F)cc34)CN2C(=O)[C@H]1NC(=O)OC(C)(C)C(F)(F)F [Compound 4193] | – | – | – | – | EC50 [1, 5]: < 5.46 nM; EC50 [2, 6]: < 5.46 nM |
| CCN(C)c1cc2cc(OC)ccc2c(O[C@@H]2C[C@H]3C(=O)N[C@]4(C(=O)NS(=O)(=O)C5(CF)CC5)C[C@H]4/C=C\CC[C@@H](C)C[C@@H](C)[C@H](NC(=O)OC(C)(C)C(C)(F)F)C(=O)N3C2)n1 [Compound 1139, 3,3-difluoro-2-methylbutan-2-yl((2R,6S,7R,9R,13aS,14aR,16aS,Z)-2-((3-(ethyl(methyl)amino)-6-methoxyisoquinolin-1-yl)oxy)-14a-(((1-(fluoromethyl)cyclopropyl)sulfonyl)carbamoyl)-7,9-dimethyl-5,16-dioxo-1,2,3,5,6,7,8,9,10,11,13a,14,14a,15,16,16a-hexadecahydrocyclopropa[e]pyrrolo[1,2-a][1,4]diazacyclopentadecin-6-yl)carbamate] | 4.82 to 103 nM | 4.82 to 103 nM | – | – | – |
| COc1cnc(O[C@@H]2C[C@H]3C(=O)N[C@]4(C(=O)NS(=O)(=O)C5(CF)CC5)C[C@H]4/C=C\CC[C@H](C)C[C@@H](C)[C@H](NC(=O)OC(C)(C)C)C(=O)N3C2)c2ccc(F)cc12 [Compound 3145, tert-butyl ((2R,6S,7R,9S,13aS,14aR,16aS,Z)-2-((6-fluoro-4-methoxyisoquinolin-1-yl)oxy)-14a-(((1-(fluoromethyl)cyclopropyl)sulfonyl)carbamoyl)-7,9-dimethyl-5,16-dioxo-1,2,3,5,6,7,8,9,10,11,13a,14,14a,15,16,16a-hexadecahydrocyclopropa[e]pyrrolo[1,2-a][1,4]diazacyclopentadecin-6-yl)carbamate] | 4.82 to 103 nM | 4.82 to 103 nM | – | – | – |
| C=C1C=Cc2c(O[C@@H]3C[C@H]4C(=O)N[C@]5(C(=O)NS(=O)(=O)C6CC6)C[C@H]5/C=C\CC[C@@H](C)C[C@@H](CC)[C@H](NC(=O)OC(C)(C)C)C(=O)N4C3)ncc(OC)c2C1 [Compound 4007] | – | – | < 5.46 nM | < 5.46 nM | – |
| CC[C@@H]1C[C@H](C)CC/C=C\[C@@H]2C[C@@]2(C(=O)NS(=O)(=O)C2(C)CC2)NC(=O)[C@@H]2C[C@@H](Oc3ncc(N4CCOCC4)c4ccccc34)CN2C(=O)[C@H]1NC(=O)OC(C)(C)C(C)(F)F [Compound 5457, 3,3-difluoro-2-methylbutan-2-yl((2R,6S,7R,9R,13aS,14aR,16aS,Z)-7-ethyl-9-methyl-14a-(((1-methylcyclopropyl)sulfonyl)carbamoyl)-2-((4-morpholinoisoquinolin-1-yl)oxy)-5,16-dioxo-1,2,3,5,6,7,8,9,10,11,13a,14,14a,15,16,16a-hexadecahydrocyclopropa[e]pyrrolo[1,2-a][1,4]diazacyclopentadecin-6-yl)carbamate] | – | – | 0.51 to 1 nM | 1.01 to 5 nM | – |
| COc1ccc2c(O[C@@H]3C[C@H]4C(=O)N[C@]5(C(=O)NS(=O)(=O)C6(CF)CC6)C[C@H]5/C=C\CC[C@H](C)C[C@@H](C)[C@H](NC(=O)OC(C)(C)C)C(=O)N4C3)nc(N3CCCC3)nc2c1 [Compound 3013, tert-butyl ((2R,6S,7R,9S,13aS,14aR,16aS,Z)-14a-(((1-(fluoromethyl)cyclopropyl)sulfonyl)carbamoyl)-2-((7-methoxy-2-(pyrrolidin-1-yl)quinazolin-4-yl)oxy)-7,9-dimethyl-5,16-dioxo-1,2,3,5,6,7,8,9,10,11,13a,14,14a,15,16,16a-hexadecahydrocyclopropa[e]pyrrolo[1,2-a][1,4]diazacyclopentadecin-6-yl)carbamate] | 4.82 to 103 nM | 4.82 to 103 nM | – | – | – |
| COc1cc2ccnc(O[C@@H]3C[C@H]4C(=O)N[C@]5(C(=O)NS(=O)(=O)C6CC6)C[C@H]5/C=C\CC[C@@H](C)C[C@@H](C)[C@H](NC(=O)OC(C)(C)C(F)(F)F)C(=O)N4C3)c2cc1F [Compound 4169] | – | – | – | – | EC50 [1, 5]: < 5.46 nM; EC50 [2, 6]: < 5.46 nM |
| COc1ccc2c(O[C@@H]3C[C@H]4C(=O)N[C@]5(C(=O)NS(=O)(=O)C6(C)CC6)C[C@H]5/C=C\CC[C@@H](C)C[C@@H](C)[C@H](NC(=O)OC(C)(C)C)C(=O)N4C3)cc(-c3ccc(OC(C)C)cc3)nc2c1 [Compound 4242, tert-butyl ((2R,6S,7R,9R,13aS,14aR,16aS,Z)-2-((2-(4-isopropoxyphenyl)-7-methoxyquinolin-4-yl)oxy)-7,9-dimethyl-14a-(((1-methylcyclopropyl)sulfonyl)carbamoyl)-5,16-dioxo-1,2,3,5,6,7,8,9,10,11,13a,14,14a,15,16,16a-hexadecahydrocyclopropa[e]pyrrolo[1,2-a][1,4]diazacyclopentadecin-6-yl)carbamate] | – | – | 0.51 to 1 nM | 0.51 to 1 nM | – |
| CC[C@@H]1C[C@H](C)CC/C=C\[C@@H]2C[C@@]2(C(=O)NS(=O)(=O)C2(C)CC2)NC(=O)[C@@H]2C[C@@H](Oc3ncc(OC)c4ccc(F)cc34)CN2C(=O)[C@H]1NC(=O)C(C)(C)C(F)(F)F [Compound 4324, (2R,6S,7R,9R,13aS,14aR,16aS,Z)-7-ethyl-2-((7-fluoro-4-methoxyisoquinolin-1-yl)oxy)-9-methyl-N-((1-methylcyclopropyl)sulfonyl)-5,16-dioxo-6-(3,3,3-trifluoro-2,2-dimethylpropanamido)-1,2,3,5,6,7,8,9,10,11,13a,14,14a,15,16,16a-hexadecahydrocyclopropa[e]pyrrolo[1,2-a][1,4]diazacyclopentadecine-14a-carboxamide] | – | – | 0.51 to 1 nM | 1.01 to 5 nM | – |
| CCOc1ccc2nc(C(F)(F)F)c(O[C@@H]3C[C@H]4C(=O)N[C@]5(C(=O)NS(=O)(=O)C6(C)CC6)C[C@H]5/C=C\CC[C@@H](C)C[C@@H](C)[C@H](NC(=O)OC(C)(C)C(F)(F)F)C(=O)N4C3)nc2c1 [Compound 4348] | – | – | – | – | EC50 [1, 5]: 0.1 to 0.5 nM; EC50 [2, 6]: 0.51 to 1 nM |
| CCOc1cnc(O[C@@H]2C[C@H]3C(=O)N[C@]4(C(=O)NS(=O)(=O)C5CC5)C[C@H]4/C=C\CC[C@@H](C)C[C@@H](C)[C@H](NC(=O)OC(C)(C)C)C(=O)N3C2)c2ccccc12 [Compound 16, tert-butyl ((2R,6S,7R,9R,13aS,14aR,16aS,Z)-14a-((cyclopropylsulfonyl)carbamoyl)-2-((4-ethoxyisoquinolin-1-yl)oxy)-7,9-dimethyl-5,16-dioxo-1,2,3,5,6,7,8,9,10,11,13a,14,14a,15,16,16a-hexadecahydrocyclopropa[e]pyrrolo[1,2-a][1,4]diazacyclopentadecin-6-yl)carbamate] | < 5.46 nM | < 5.46 nM | – | – | – |
| CC[C@@H]1C[C@H](C)CC/C=C\[C@@H]2C[C@@]2(C(=O)NS(=O)(=O)C2CC2)NC(=O)[C@@H]2C[C@@H](Oc3ncc(OC)c4ccc(F)cc34)CN2C(=O)[C@H]1NC(=O)OC(C)(C)C(C)(F)F [Compound 5469, 3,3-difluoro-2-methylbutan-2-yl((2R,6S,7R,9R,13aS,14aR,16aS,Z)-14a-((cyclopropylsulfonyl)carbamoyl)-7-ethyl-2-((7-fluoro-4-methoxyisoquinolin-1-yl)oxy)-9-methyl-5,16-dioxo-1,2,3,5,6,7,8,9,10,11,13a,14,14a,15,16,16a-hexadecahydrocyclopropa[e]pyrrolo[1,2-a][1,4]diazacyclopentadecin-6-yl)carbamate] | – | – | 0.1 to 0.5 nM | 1.01 to 5 nM | – |
| COc1cnc(O[C@@H]2C[C@H]3C(=O)N[C@]4(C(=O)NS(=O)(=O)C5CCC5)C[C@H]4/C=C\CC[C@@H](C)C[C@@H](C)[C@H](NC(=O)OC(C)(C)C(F)(F)F)C(=O)N3C2)c2ccccc12 [Compound 5354, 1,1,1-trifluoro-2-methylpropan-2-yl((2R,6S,7R,9R,13aS,14aR,16aS,Z)-14a-((cyclobutylsulfonyl)carbamoyl)-2-((4-methoxyisoquinolin-1-yl)oxy)-7,9-dimethyl-5,16-dioxo-1,2,3,5,6,7,8,9,10,11,13a,14,14a,15,16,16a-hexadecahydrocyclopropa[e]pyrrolo[1,2-a][1,4]diazacyclopentadecin-6-yl)carbamate] | – | – | < 5.46 nM | < 5.46 nM | – |
| COc1ccc2c(O[C@@H]3C[C@H]4C(=O)N[C@]5(C(=O)NS(=O)(=O)C6(C)CC6)C[C@H]5/C=C\CC[C@@H](C)C[C@@H](C)[C@H](NC(=O)OC(C)(C)C)C(=O)N4C3)ncc(N3CCOCC3)c2c1 [Compound 4137, tert-butyl (2R,6S,7R,9R,13aS,14aR,16aS,Z)-2-(6-methoxy-4-morpholinoisoquinolin-1-yloxy)-7,9-dimethyl-14a-(1-methylcyclopropylsulfonylcarbamoyl)-5,16-dioxo-1,2,3,5,6,7,8,9,10,11,13a,14,14a,15,16,16a-hexadecahydrocyclopropa[e]pyrrolo[1,2-a][1,4]diazacyclopentadecin-6-ylcarbamate] | – | – | < 5.46 nM | < 5.46 nM | – |

Source: patent publication US9499550B2 (BRISTOL-MYERS SQUIBB COMPANY, priority 2012, dated 2016)
